Measurements: US10350244B2, “Pharmaceutical composition for the treatment of diseases in which LPS- and/or apoptosis regulation is disturbed” (priority 2013, dated 2019)

What was measured:
Type in all cases: cell-based, human
[1] = tested on: MNC; assay: Cytokine production by MNC after incubation (Luminex immunobead multiplex assay)
Description: (§1) Peripheral blood mononuclear cells (PBMC, i.e., mononuclear cells (MNC)). This refers to mononuclear blood cells which have a round cell nucleus. These are, for example, lymphocytes and monocytes. Said cells play an important role in the immune system in controlling infections. PBMC or MNC are frequently employed in diagnostics as an indicator for infections which are present, as a factor for prognosing the course of an HIV infection and in clinical research. From the blood and sera collection of the tumor tissue bank and the tumor cells of an individual tumor patient that were likewise stored in said bank, they were, after passing through a specific thawing/revitalization procedure, examined for their protein and gene expression, apoptosis behavior and their released messenger substances (cytokine profiles) under the influence of the colostrum preparation Lactobin® N, vitamin D3 and also the combination in a specifically selected repertoire of methods.
(§2) After collection, EDTA tubes were left to stand at room temperature (RT) for 60 min. Thereafter, serum was removed, divided into portions (1 ml/tube) and stored in −80° C. The blood was centrifuged at 311 g for 10 min. Thereafter, 1 part whole blood+5 parts lysis buffer were mixed, left to stand at RT for 15 min and then centrifuged at 311 g for 10 min. The supernatant was discarded and the pellet was washed with RPMI 1640 medium (repeated 3×). The cells were then counted and frozen at −170° C. in nitrogen at 5×10^6/ml (freezing medium: RPMI 1640 medium containing 5% DMSO, dimethyl sulfoxide=cryopreservation). In addition, the immune status was measured from one tube (FACS analysis, see below).
The cryotube to be thawed was removed from the nitrogen and immediately transferred to a 37° C. water bath. Once the cells had detached from the inner wall of the cryotube (1-1.5 min), they were transferred to a sterile 50 ml Falcon tube containing 40 ml of cold medium. After a 5-minute centrifugation at 400 g, the medium was removed, the cell pellet was resuspended in 6 ml of warmed-up medium and the cells were counted. […]
Interleukin (IL)-12 and proinflammatory factors such as […], IL-6, IFN-γ, TNF-α and anti-inflammatory factors such as IL-10 and IL-13 in the serum samples were measured in duplicate using an immunobead-based multiplex assay. The assays were carried out on a Bio-Plex system (Biosource).
The microspheres coated with mixtures of corresponding capture antibodies and the labeled detection antibodies were purchased from Biosource (Camarillo, […]). The reagents had already been tested and qualified by the manufacturer to rule out a cross-reactivity of the antibody-coated microspheres.
The Luminex measurements were carried out in order to determine further expressed MNC cytokines. 25 μl of antibody-coated microspheres were added to 96-well plates [mixture of the cytokines GM-CSF, IFN-γ, IL-1β, IL-2, IL-4, IL-5, IL-6, IL-8, IL-10 and TNF-α; ready-prepared kit, from Biosource International, California, USA]. After washing had been carried out twice, 50 μl of incubation buffer, 50 μl of ready-prepared sample dilution and 50 μl of sample were pipetted into each well. The plates were incubated in the dark on a shaker for 2 hours at room temperature and again washed twice. Thereafter, 100 μl of the biotinylated detection antibody were added to each well, incubated in the dark on a shaker for a further hour at room temperature, and again washed twice. 100 μl of SAV-RPE (R-phycoerythrin fluorescent dye, from Biosource International) were pipetted into each well, the plates were again shaken in the dark for 30 min at room temperature and washed three times. Each assay preparation was adjusted with 100 μl of wash buffer per well as the final volume and the plates were measured in the Luminex reader (Luminex 100, from Luminex Applied Systems, Sheffield, UK). […]

[2] = tested on: MNC; assay: IGF-1 protein determination (ELISA) in MNC incubations
Description: as §1
The examinations were carried out in order to detect the cytokine insulin-like growth factor 1 (IGF-1) present in the samples. To this end, use was made of enzyme-linked immunosorbent assay (ELISA) sets (from Biosource International, California, USA) in accordance with the protocol instructions from the manufacturer. 50 μl of standard sample, control and the samples were pipetted per well into 96-well plates coated with anti-IGF-1. Thereafter, 50 μl of biotin conjugate (second antibody against IGF-1) were added. Subsequently, the plates were incubated at room temperature for 90 min, washed four times, and 100 μl of streptavidin-HRP working solution were pipetted into the wells and the plate was incubated at room temperature for 45 min. Thereafter, the plates were again washed four times, 100 μl of stabilized chromogen were added and incubated at room temperature for 30 min. Lastly, 100 μl of stop solution were pipetted. The results were read off on the ELISA reader at 450 nm (Dynatech Laboratories, Sullyfield, USA).
To prepare a preparation according to the invention, the above-described colostrum powder (preferably Lactobin N) was admixed with an appropriate amount of the vitamin D3-containing powder, achieving the inventive concentration of vitamin D3. A mixing ratio used according to the invention was 0.2 mg of the vitamin D3-containing powder per gram of colostrum powder (0.2 mg/g). This yielded 0.5 μg of vitamin D3/g of ready-made preparation for the samples. A recommended daily dose is 10 g of ready-made preparation, i.e., 5 μg of vitamin D3. […] Similarly, only the vitamin D3 preparation was used when the samples were treated only with vitamin D3 (e.g., “Vit. D3” in Table 1).

[3] = tested on: monocytes from the blood of patients with CRC; assay: Gene expression in MNC/monocytes from blood of CRC patients (RT-qPCR); conditions: monocytes from blood of CRC patients UICC I to IV, 12-hour incubation, synergism in UICC I-III, FIG. 5
Method: as §2
RNA was extracted from MNCs and homogenized tumor tissue using the RNA Extraction Kit (Qiagen, Hilden, Germany), washed in DEPC 75% ethanol solution and then stored at −70° C. until it was processed further. The amount of RNA was determined by measuring absorption at 260 nm. The 260:280 ratio was determined within the 1.8-2.0 range; it was thus possible to prevent a contamination of the RNA by proteins. […]
The ‘real-time reverse transcription polymerase chain reaction’ method (real-time RT-PCR for short) is used for determining the expression of various genes. Said method allows the quantification of the expression of a gene in question in relation to the control genes. […]

[4] = MNC of CRC patients UICC I (n = 6)
[5] = MNC of CRC patients UICC II (n = 6)
[6] = MNC of CRC patients UICC III (n = 6)
[7] = MNC of CRC patients UICC IV (n = 6)

SMILES: C=C1CC[C@H](O)C/C1=C/C=C1\CCC[C@]2(C)[C@@H]([C@H](C)CCCC(C)C)CC[C@@H]12 [Vit D3, cholecalciferol]
- IFN-γ [1, 4]: 58.5 pg/mL
- IL-1β [1, 4]: 42.5 pg/mL
- IL-6 [1, 4]: 98.7 pg/mL
- IL-10 [1, 4]: 18.3 pg/mL
- IL-12 [1, 4]: 74.9 pg/mL
- IL-13 [1, 4]: 30.1 pg/mL
- TNF-α [1, 4]: 83.6 pg/mL
- IFN-γ [1, 5]: 77.3 pg/mL
- IL-1β [1, 5]: 34.8 pg/mL
- IL-6 [1, 5]: 102.8 pg/mL
- IL-10 [1, 5]: 18.1 pg/mL
- IL-12 [1, 5]: 80.1 pg/mL
- IL-13 [1, 5]: 27.9 pg/mL
- TNF-α [1, 5]: 169.1 pg/mL
- IFN-γ [1, 6]: 215.9 pg/mL
- IL-1β [1, 6]: 169.4 pg/mL
- IL-6 [1, 6]: 91.7 pg/mL
- IL-10 [1, 6]: 17.9 pg/mL
- IL-12 [1, 6]: 214.7 pg/mL
- IL-13 [1, 6]: 26.1 pg/mL
- TNF-α [1, 6]: 331.5 pg/mL
- IFN-γ [1, 7]: 292.5 pg/mL
- IL-1β [1, 7]: 369.9 pg/mL
- IL-6 [1, 7]: 213.1 pg/mL
- IL-10 [1, 7]: 7.9 pg/mL
- IL-12 [1, 7]: 499.9 pg/mL
- IL-13 [1, 7]: 9.1 pg/mL
- TNF-α [1, 7]: 413.1 pg/mL
- IFN-γ ([1]; MNC of Control (n = 6)): 12.8 pg/mL
- IL-1β ([1]; MNC of Control (n = 6)): 4.8 pg/mL
- IL-6 ([1]; MNC of Control (n = 6)): 3.3 pg/mL
- IL-10 ([1]; MNC of Control (n = 6)): 27.9 pg/mL
- IL-12 ([1]; MNC of Control (n = 6)): 47.7 pg/mL
- IL-13 ([1]; MNC of Control (n = 6)): 43.6 pg/mL
- TNF-α ([1]; MNC of Control (n = 6)): 62.6 pg/mL
- IGF-1 [2, 4]: 148.6 ng/mL
- IGF-1 [2, 5]: 213.4 ng/mL
- IGF-1 [2, 6]: 299.1 ng/mL
- IGF-1 [2, 7]: 896.4 ng/mL
- IGF-1 ([2]; MNC of Control (n = 6)): 90.3 ng/mL
- expression of the IGF-1 gene in MNC [3]: drop in the gene expression profile
